“And” between values parts separate entries of the source, which are not always exact repeats. Equal entries are not always repeated. Bounds are passed on as bounds.

Assay [1] is described as follows: microbe, parasite or virus in culture. The settings on record: Mycobacterium tuberculosis, 96 h, read-out: pIC50 (converted).
Assay [2] in a line: microbe, parasite or virus in culture. Conditions: Mycobacterium tuberculosis, 72 h, read-out: pIC50 (converted).
Another assay deals with Plasmodium falciparum. The assay is described as follows: Calibr Malaria Delayed Death Assay SOP. Type of assay: functional, organism-based. The settings on record: for IC50: Plasmodium falciparum.
Another assay concerns Leishmania donovani. The assay can be described thus: Leishmania intramacrophage assay. Type of assay: functional, organism-based. The settings on record: for IC50: Leishmania donovani.
A short description of assay [3]: In vitro enzyme assay to detect hydrolysis of chlorophenol red-beta-D-[…] directly proportional to the number of Toxoplasma stably expressing beta-galactosidase. Type of assay: functional, organism-based, Toxoplasma gondii. The settings on record: for IC50: Toxoplasma gondii.
The next assay concerns Trypanosoma brucei. The assay can be described thus: Trypanosoma brucei 72 hour study. Type of assay: functional, organism-based. Conditions: for IC50: Trypanosoma brucei, 72 h.
Another assay concerns the target ClpP1P2 (Mycobacterium tuberculosis (strain ATCC 25618 / H37Rv), UniProt P9WPC3+P9WPC5). The assay can be described thus: in vitro assay to detect presence of AMC directly proportional to the activity of ClpP1P2. GHDDI collaboration. Type of assay: functional.
Another assay deals with T1, Histidine--tRNA ligase (Leishmania infantum, UniProt A4I591).
T1 sequence (A4I591 whole entry): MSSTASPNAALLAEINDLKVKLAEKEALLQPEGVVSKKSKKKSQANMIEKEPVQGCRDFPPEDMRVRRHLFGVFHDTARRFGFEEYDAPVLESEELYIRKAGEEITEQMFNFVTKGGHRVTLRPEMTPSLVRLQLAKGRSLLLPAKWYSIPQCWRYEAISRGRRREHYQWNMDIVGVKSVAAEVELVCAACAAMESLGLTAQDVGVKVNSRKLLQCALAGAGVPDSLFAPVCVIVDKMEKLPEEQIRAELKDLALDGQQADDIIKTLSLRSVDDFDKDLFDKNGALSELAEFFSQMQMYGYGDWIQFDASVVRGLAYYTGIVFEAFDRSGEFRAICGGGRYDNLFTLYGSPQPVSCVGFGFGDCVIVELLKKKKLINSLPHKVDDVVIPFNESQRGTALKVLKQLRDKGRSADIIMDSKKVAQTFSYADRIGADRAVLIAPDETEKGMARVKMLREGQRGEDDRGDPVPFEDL
The assay can be described thus: Leishmania infantum Histidine tRNA synthetase (LdHisRS). Type of assay: functional.

For a further assay, the target named is Tryptophan--tRNA ligase (Mycobacterium tuberculosis (strain ATCC 25618 / H37Rv), UniProt P9WFT3). The assay is described as follows: Biochemical assay for Mt-TrpRS. Type of assay: functional.
Chain of Tryptophan--tRNA ligase (P9WFT3 whole entry): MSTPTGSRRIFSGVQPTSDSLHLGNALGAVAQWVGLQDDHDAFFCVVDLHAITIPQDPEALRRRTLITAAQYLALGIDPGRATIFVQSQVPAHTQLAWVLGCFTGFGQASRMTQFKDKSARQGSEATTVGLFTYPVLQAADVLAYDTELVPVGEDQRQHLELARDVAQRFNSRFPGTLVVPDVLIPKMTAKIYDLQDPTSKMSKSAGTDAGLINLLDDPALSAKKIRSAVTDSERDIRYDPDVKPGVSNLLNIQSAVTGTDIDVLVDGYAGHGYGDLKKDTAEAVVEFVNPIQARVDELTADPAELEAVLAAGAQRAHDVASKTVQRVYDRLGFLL

Chain of ClpP1P2 (P9WPC5 whole entry): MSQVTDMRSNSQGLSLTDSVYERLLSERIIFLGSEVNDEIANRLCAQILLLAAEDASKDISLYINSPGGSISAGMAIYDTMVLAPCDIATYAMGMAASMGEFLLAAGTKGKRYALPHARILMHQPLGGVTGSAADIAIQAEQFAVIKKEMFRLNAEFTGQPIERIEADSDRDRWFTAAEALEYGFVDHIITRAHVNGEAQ
Chain of ClpP1P2 (P9WPC3 whole entry): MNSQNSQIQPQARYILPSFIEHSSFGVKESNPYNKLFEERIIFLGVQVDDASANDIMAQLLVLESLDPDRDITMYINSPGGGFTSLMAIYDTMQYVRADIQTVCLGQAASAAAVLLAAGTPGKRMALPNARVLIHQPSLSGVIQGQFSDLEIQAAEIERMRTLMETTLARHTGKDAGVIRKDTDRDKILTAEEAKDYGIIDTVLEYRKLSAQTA

The term pIC50 denotes the negative decadic logarithm of the IC50, by convention in mol/L. As to `CCN(Cc1c(F)cccc1Cl)c1cc(C2CCNCC2)nc(C)n1`, the IC50 in assay [1] was 24.4 µM; in [2] it was 37.4 µM; with Plasmodium falciparum, 495 nM; in the assay with Leishmania donovani it was 3.56 µM; in assay [3], 4.56 µM; in the assay on Trypanosoma brucei, 4.96 µM. The pIC50 in the assay on Plasmodium falciparum is 6.254; in the assay on Leishmania donovani, 5.445; in the assay on Trypanosoma brucei it was 5.239 and 5.238.

With `CN(Cc1cccc(O)c1)CC1CCCN(CCc2ccc(Cl)cc2)C1` (stereo not drawn), the negative logarithm of the IC50 (pIC50) is 6.224 with Plasmodium falciparum; 5.277 and 4.854 in the assay with Leishmania donovani; 5.504 and 5.492 in the assay with Trypanosoma brucei. Moreover, the IC50 in the assay on Plasmodium falciparum is 634 nM; in the assay with Trypanosoma brucei, 3.82 µM.

With `O=C(c1cc(-c2ccn(CC3CC3)n2)n2ccccc12)N1CCOCC1`, the IC50 in [1] is over 50.1 µM; in assay [2] it was 27.8 µM; in the assay on Plasmodium falciparum, 1010 nM; in the assay with Leishmania donovani it was 18.9 µM; at ClpP1P2, over 100 µM. In addition, the pIC50 in the assay on Plasmodium falciparum is 5.917; in the assay with Leishmania donovani it was 4.802; in the assay on Trypanosoma brucei, 5.586 and 5.592 and 5.253.

Take `Cc1nc(C2(O)CCCNCC2)sc1CCOc1ccc(Cl)cc1.Cl` (stereo not drawn): the pIC50 in the assay on Leishmania donovani was 4.792; with Trypanosoma brucei, 5.216 and 5.242. For the same molecule, the IC50 in the assay on Leishmania donovani is 8.46 µM; in assay [3] it was 11 µM; with Trypanosoma brucei, 5.07 µM.

On to `COc1ccc2[nH]cc(-c3ccnc(NC4CCCC4)n3)c2c1`, for which the pIC50 was 4.561 in the assay with Leishmania donovani; 5.019 and 4.85 in the assay on Trypanosoma brucei. The IC50 was 21.8 µM with Leishmania donovani, 2.65 µM in [3] and 14.6 µM in the assay with Trypanosoma brucei.

In the assay with Leishmania donovani, `COc1ccc(-c2nc(CN3CCCC(OC)C3)c(C)o2)c(F)c1` (stereo not drawn) gave a pIC50 of 4.638 and an IC50 of 30.9 µM. For the same molecule, in the assay with Trypanosoma brucei, the pIC50 is 5.649 and 5.647; the IC50 is 2.36 µM.

In the case of `Cc1nc2c(c(NCc3cc4ccccc4s3)n1)CCNCC2`, the IC50 is 38 µM in assay [1], over 50.1 µM in assay [2], 5.79 µM with Leishmania donovani and 2.29 µM with Trypanosoma brucei. For the same molecule, the negative-log IC50 (pIC50) with Leishmania donovani was 5.15; with Trypanosoma brucei it was 5.606 and 5.633.

As to `CCc1cc(=O)[nH]c(-n2nc(C3CC3)cc2NC(=O)C2CC2)n1`, the IC50 in assay [1] is 11.4 µM; in [2] it was 12.5 µM; with Leishmania donovani, 29.8 µM; in assay [3] it was 1.58 µM; in the assay on Trypanosoma brucei, 3.41 µM. Further, the pIC50 is 4.573 in the assay with Leishmania donovani; 5.904 in assay [3]; 5.404 and 5.398 with Trypanosoma brucei.

In the assay with Leishmania donovani, `Cc1c(C)c(C)c2[nH]c(-c3cn(C4CCNCC4)nn3)nc2c1C` showed a pIC50 of 4.511 and an IC50 of 19.8 µM. For the same molecule, in the assay with Trypanosoma brucei, the pIC50 was 5.199 and 5.184; the IC50 is 6.01 µM.

As to `Nc1cc(N2CCC(c3cc(Cc4ccccc4)n[nH]3)CC2)ccn1`, the pIC50 in the assay on Leishmania donovani was 4.671; in assay [3], 5.141; in the assay on Trypanosoma brucei, 5.138 and 5.184. Besides, the IC50 with Leishmania donovani was 17.4 µM; on Histidine--tRNA ligase, 69.6 µM and 73.8 µM; in assay [3], 4.92 µM; in the assay on Trypanosoma brucei, 6.85 µM.

As for `Cc1[nH]/c(=N\C(=O)c2csc(NCC(C)C)n2)sc1C`, the negative-log IC50 (pIC50) in the assay with Leishmania donovani is 4.614; with Trypanosoma brucei it was 5.208 and 5.15. Also, the IC50 in the assay with Leishmania donovani is 19.4 µM; in [3], 4.62 µM; in the assay with Trypanosoma brucei, 6.25 µM.

In the assay with Leishmania donovani, `CCN1CC(CN(C)c2cc(C)nc(N)n2)Oc2ccccc21` (stereo not drawn) showed a pIC50 of 4.519 and an IC50 of 35.1 µM. In the assay with Trypanosoma brucei, the pIC50 was 4.724 and 4.705; the IC50 was 19.3 µM.

`OC(CNc1nc(C2CCCC2)nc2c1CCNCC2)C(F)(F)F` (stereo not drawn): in the assay on Leishmania donovani, the pIC50 was 4.72 and 4.703; the IC50 is 18.4 µM. In the assay on Trypanosoma brucei, the pIC50 is 5.186 and 5.15; the IC50 was 6.61 µM.

Take `Cc1nc(C2(O)CCCNCC2)sc1CCOc1ccc(F)c(F)c1.Cl` (stereo not drawn): the IC50 is over 195 µM on Tryptophan--tRNA ligase, 11.6 µM in the assay with Leishmania donovani and 6.99 µM in the assay with Trypanosoma brucei. Further, the pIC50 is 4.936 in the assay with Leishmania donovani; 5.175 and 5.131 in the assay on Trypanosoma brucei.

For the molecule `CCC1CN(C(=O)c2csc3nc(-c4ccc(Cl)cc4)cn23)CCN1` (stereo not drawn), the IC50 is 49.2 µM in assay [1], 17.9 µM in assay [2], 12.4 µM with Leishmania donovani and 7.75 µM in the assay on Trypanosoma brucei. Moreover, the pIC50 is 4.877 with Leishmania donovani; 5.161 and 5.156 with Trypanosoma brucei.

Consider `Clc1cccc(C2CCN(c3ncnc4c3CCNC4)C2)c1` (stereo not drawn), for which the IC50 was 29.6 µM in assay [1], over 50.1 µM in assay [2], 23.9 µM in the assay with Leishmania donovani and 19.9 µM in the assay on Trypanosoma brucei. The pIC50 was 4.674 with Leishmania donovani; 4.718 and 4.683 in the assay on Trypanosoma brucei.

For `CCCOc1ccccc1CCCNc1ncnc2oc(C)nc12`, the IC50 was over 50.1 µM in [1], 25.4 µM in assay [2] and 4.09 µM in the assay with Trypanosoma brucei. The negative logarithm of the IC50 (pIC50) was 4.492 and 4.801 in the assay on Leishmania donovani; 5.583 and 5.61 with Trypanosoma brucei.

In the assay with Leishmania donovani, `Cc1ccc(CNC2CCN(CCc3ccncc3)CC2)cc1C` gave a pIC50 of 4.955 and an IC50 of 15.6 µM. Besides, in the assay with Trypanosoma brucei, the pIC50 is 5.061 and 5.288; the IC50 is 6.7 µM.

With `Cc1ccc(CNC(CN2CCN(C)CC2)c2ccccc2)cc1C` (stereo not drawn), the IC50 was 4.57 µM in the assay with Leishmania donovani and 1.7 µM in the assay on Trypanosoma brucei. In addition, the pIC50 in the assay with Trypanosoma brucei was 5.711 and 5.621.

`CN1[C@H]2CC[C@@H]1CN(C(=O)c1ccc(-c3ccccc3)[nH]1)CC2`: in the assay on Leishmania donovani, the pIC50 was 4.659 and the IC50 is 30.6 µM. Also, in the assay on Trypanosoma brucei, the pIC50 is 4.853 and 4.971; the IC50 was 9.62 µM.

In the assay on Leishmania donovani, `Cc1[nH]/c(=N\C(=O)c2csc(NC3CC3)n2)sc1C` showed a pIC50 of 4.559 and an IC50 of 47.7 µM. Besides, in the assay on Trypanosoma brucei, the pIC50 was 5.049 and 4.932; the IC50 is 13.2 µM.

For `Cc1sc2nc(CCN)nc(N(C)CCCC3CCCO3)c2c1C` (stereo not drawn), the IC50 in the assay with Leishmania donovani was over 50.1 µM. Besides, in the assay with Trypanosoma brucei, the pIC50 is 4.729 and 4.748; the IC50 was 22.5 µM.

As for `CC(N)C(=O)N1CCC(Oc2cccc(C(F)(F)F)c2)CC1` (stereo not drawn), in the assay on Leishmania donovani, the negative logarithm of the IC50 (pIC50) was determined as 4.638 and the IC50 was 19.3 µM. For the same molecule, in the assay on Trypanosoma brucei, the pIC50 was 5.074 and 4.999; the IC50 was 13.2 µM.

The values above are taken from ChEMBL document CHEMBL3988442, “University of Dundee, Small-Polar-MMV Screening Library” (2021).
